Results published in patent US20140370320A1, “WOOD PRESERVATIVE” (Arch Wood Protection Pty Ltd, priority 2011, published 2014).

Experiments:
[1] = test system: decay of Radiata pine sapwood panels (field exposure, Hawaii); assay: Hawaiian field trial, flat panel test on treated radiata pine sapwood panels
Protocol: Radiata pine sapwood panels (200×70×25 mm) were treated with various preservatives and exposed on racks at 45°, using a method generally described as the “flat panel test” (Reference: Australasian Wood Preservation Committee, Protocols for Assessment of Wood Preservatives, March 2007 Revision, pp. 32). Untreated controls, solvent-treated controls and panels treated with reference preservatives (e.g., CCA) were also included in this field test. Note: All formulations contained the insecticide permethrin at a concentration sufficient to deliver approximately 0.02% m/m active in the treated panels. After approximately three years outdoor exposure in Hawaii, the specimens were rated using a typical 0 to 10 rating system (e.g., Evaluation Standard […], AWPA Book of Standards, 2010, American Wood Protection Association, Birmingham, Ala.), where 7 is the lowest score where the specimen is deemed still to be serviceable.

[2] = test system: Coniophora olivacea; assay: Laboratory fungal bioassay (Example 6), mass loss of treated, leached radiata pine sapwood; assay type: cell-based
Protocol: (§1) The bioassay was carried out in accordance with recognised methods (see, Protocols for the Assessment of Wood Preservatives, Australasian Wood Preservation Committee, March 2007 Revision, Ensis, Clayton).
(§2) Radiata pine sapwood (20×20×10 mm) specimens were treated with various preservative formulations. After drying the specimens were saturated with water and leached in a shaking water-bath at 35° C. for seven days, with daily changes of water. After leaching, the specimens were vacuum oven dried, before being sterilised in readiness for the fungal bioassay. The bioassay was carried out in accordance with standard laboratory techniques, by an independent research provider.
(§3) Mass loss was used to determine the effectiveness of a preservative treatment. […] Decay is deemed to have been prevented if the mass loss is less than 3%.
Some basidiomycete decay fungi are more tolerant to azoles that others. In this bioassay, a selection of brown rot fungi were chosen. One of those chosen, Coniophora olivacea, is relatively resistant to azoles.

[3] = test system: Fomitopsis lilacinogilva; assay: as above; assay type: cell-based
Protocol: as §1, §2, §3
Fomitopsis lilacinogilva is a wood-rotting bracket fungus common in many places of Gondwanaland origin. It is found on logs, stumps, and some outdoor wooden constructions. It forms fans, shelves, pads or crusts, to 100 mm across, is hairy, crusted above, zoned pinkish and brownish. The results against Fomitopsis lilacinogilva were less spectacular. Azole/zinc 1:2 gave 10% mass loss; 1:1 gave 15.9% mass loss; and azoles alone gave 19.9% mass loss versus the control (71.5% mass loss).

[4] = retention 0.1% m/m (as Zn metal)
[5] = retention 0.2% m/m (as Zn metal)
[6] = retention 0.3% m/m (as Zn metal)

Substance | Comment (decay state of panels) ([1]; retention 0.11% m/m Cu, approx. three years outdoor exposure in Hawaii, permethrin approx. 0.02% m/m) | Minimum effective retention to prevent decay, as copper ([1]; three year inspection, Hawaii, expressed as copper) | C. olivacea Mass Loss (%) [2, 4] | C. olivacea Mass Loss (%) [2, 5] | C. olivacea Mass Loss (%) [2, 6] | F. lilacinogilva Mass Loss (%) [3, 4] | F. lilacinogilva Mass Loss (%) [3, 5] | F. lilacinogilva Mass Loss (%) [3, 6]
copper naphthenate | Heavily decayed | > 0.11 % m/m | – | – | – | – | – | –
zinc naphthenate [ZnN] | – | – | 50.5% | 42.8% | 28.4% | 65.8% | 60.2% | 53.5%
